Measurements as given in patent US7901675B2, “Method of using coenzyme Q10 to treat Huntington's disease” (U.S. Department of Veterans Affairs, priority 2004, dated 2011).

Legend:
[1] = tested on: R6/2 mice; assay: Survival of R6/2 HD mice on oral CoQ10 in chow; assay type: in vivo
Experimental: There is substantial evidence that bioenergetic defects may play a role in the pathogenesis of HD. A possible therapy for diseases in which there is defective energy metabolism is to administer the mitochondrial cofactor coenzyme Q10(CoQ10).
(§1) The present invention is based, in part, on the discovery that increased level of CoQ10 appears to slow the progressive functional decline in […]. We orally administered CoQ10 at 400 mg/kg, and 1, 5, 10, and 20 g/kg in R6/2 mice starting at weaning in chow formulations.

[2] = tested on: R6/2 mice; assay: Disease phenotype in R6/2 HD mice (weight loss, motor deficits, grip strength, brain atrophy, huntingtin inclusions); assay type: in vivo; details: oral CoQ10 in chow
Experimental: as §1

[3] = oral administration, 400 mg/kg, previously demonstrated

COC1=C(OC)C(=O)C(C/C=C(\C)CC/C=C(\C)CC/C=C(\C)CC/C=C(\C)CC/C=C(\C)CC/C=C(\C)CC/C=C(\C)CC/C=C(\C)CC/C=C(\C)CCC=C(C)C)=C(C)C1=O [CoQ10, Coenzyme Q10] was tested, and the neuroprotection [1, 3] was “neuroprotective”, the survival extension [1, 3] was 14.5% and the survival extension ([1]; oral in chow from weaning, 5 g/kg (greatest extension), vs untreated R6/2 mice) was 21.3%. For the same compound, the “survival in comparison to untreated R6/2 mice” value ([1]; oral in chow from weaning, all doses (400 mg/kg, 1, 5, 10, 20 g/kg)) was “significantly extended survival at all doses”, the “development of brain atrophy” value [2] was “significantly delayed” and the “development of grip strength deficit” value [2] was “significantly delayed”. For the same compound, the “development of huntingtin inclusions” value [2] was “significantly delayed”, the “development of motor deficits” value [2] was “significantly delayed” and the “development of weight loss” value [2] was “significantly delayed”.
